Measured values from ChEMBL document CHEMBL5120890, “Untapped Pharmaceutical Potential of 4,5,4'-Trihydroxy-3,3'-dimethoxybibenzyl for Regulating Obesity: A Cell-Based Study with a Focus on Terminal Differentiation in Adipogenesis” (J Nat Prod, 2022).
Activity calls are given as the source filed them. The calls are words filed in the database; no cut-off is given here.

What was measured:
[1] = molecular target: T1, 5'-AMP-activated protein kinase (Mus musculus) (UniProt Q5EG47+Q8BRK8+Q6PAM0+O54950+Q91WG5+Q9R078+Q8BGM7); assay: Activation of AMPK in mouse 3T3-L1 cells assessed as increase in AMPKbeta phosphorylation in early differentiation at 0.5 to 5 uM after 48 hrs by Western blot analysis; type: cell-based; settings: filed as activator, dose 0.5-5 µM
[2] = molecular target: T1, 5'-AMP-activated protein kinase (Mus musculus); assay: Activation of AMPK in mouse 3T3-L1 cells assessed as increase in AMPKalpha phosphorylation in early differentiation at 0.5 to 5 uM after 48 hrs by Western blot analysis; type: cell-based; settings: filed as activator, dose 0.5-5 µM
[3] = system: 3T3-L1; assay: Inhibition of AKT/GSK3beta signalling pathway in mouse 3T3-L1 cells assessed as reduction in GSK3beta phosphorylation in early differentiation at 0.5 to 5 uM after 48 hrs by Western blot analysis; type: cell-based; settings: dose 0.5-5 µM
[4] = (§1) Cytotoxicity against mouse 3T3-L1 pre-adipocytes assessed as reduction in cell viability after 48 hrs by MTT assay; type: toxicity, cell-based; settings: 3T3-L1 pre-adipocytes
[5] = system: 3T3-L1; assay: as §1; type: toxicity, cell-based; settings: 3t3-l1, 48 h, time 48 hrs
[6] = (§2) Cytotoxicity against mouse 3T3-L1 adipocytes assessed as reduction in cell viability after 48 hrs by MTT assay; type: toxicity, cell-based; settings: 3T3-L1 adipocytes
[7] = system: 3T3-L1; assay: as §2; type: toxicity, cell-based; settings: 3t3-l1, 48 h, time 48 hrs
[8] = Cytotoxicity against human PCS-210-010 pre-adipocytes assessed as reduction in cell viability after 48 hrs by MTT assay; type: toxicity, cell-based
[9] = Cytotoxicity against human PCS-210-010 adipocytes assessed as reduction in cell viability after 48 hrs by MTT assay; type: toxicity, cell-based
[10] = system: 3T3-L1; assay: Cytotoxicity against mouse 3T3-L1 pre-adipocytes assessed as reduction in cell viability at >=10 uM after 48 hrs by MTT assay; type: toxicity, cell-based; settings: 3t3-l1, 48 h
[11] = Cytotoxicity against human PCS-210-010 pre-adipocytes assessed as reduction in cell viability at >=10 uM after 48 hrs by MTT assay; type: toxicity, cell-based; settings: pcs-210-010, 48 h
[12] = system: 3T3-L1; assay: Cytotoxicity against mouse 3T3-L1 pre-adipocytes assessed as reduction in cell viability at >=25 uM after 48 hrs by MTT assay; type: toxicity, cell-based; settings: 3t3-l1, 48 h
[13] = Cytotoxicity against human PCS-210-010 pre-adipocytes assessed as reduction in cell viability at >=25 uM after 48 hrs by MTT assay; type: toxicity, cell-based; settings: pcs-210-010, 48 h
[14] = system: 3T3-L1; assay: Induction of apoptosis in mouse 3T3-L1 pre-adipocytes at 0.5 to 5 uM after 48 hrs by PI/Hoechst 33342 staining based fluorescence microscopic analysis; type: functional, cell-based; settings: dose 0.5-5 µM
[15] = system: 3T3-L1; assay: Induction of apoptosis in mouse 3T3-L1 adipocytes at 0.5 to 5 uM after 48 hrs by PI/Hoechst 33342 staining based fluorescence microscopic analysis; type: functional, cell-based; settings: dose 0.5-5 µM
[16] = system: PCS-210-010; assay: Induction of apoptosis in human PCS-210-010 pre-adipocytes at 0.5 to 5 uM after 48 hrs by PI/Hoechst 33342 staining based fluorescence microscopic analysis; type: functional, cell-based; settings: dose 0.5-5 µM
[17] = system: PCS-210-010; assay: Induction of apoptosis in human PCS-210-010 adipocytes at 0.5 to 5 uM after 48 hrs by PI/Hoechst 33342 staining based fluorescence microscopic analysis; type: functional, cell-based; settings: dose 0.5-5 µM
[18] = system: 3T3-L1; assay: Inhibition of preadipocyte differentiation in mouse 3T3-L1 cells assessed as reduction in lipid droplet accumulation in early differentiation at 0.5 to 5 uM incubated for 8 days by Oil Red O staining based inverted optical microscopic analysis; type: functional, cell-based; settings: dose 0.5-5 µM, time 8.0 day
[19] = system: 3T3-L1; assay: Inhibition of preadipocyte differentiation in mouse 3T3-L1 cells assessed as reduction in lipid droplet accumulation in maturation at 0.5 to 5 uM incubated for 8 days by Oil Red O staining based inverted optical microscopic analysis; type: functional, cell-based; settings: dose 0.5-5 µM, time 8.0 day
[20] = system: PCS-210-010; assay: Inhibition of preadipocyte differentiation in human PCS-210-010 cells assessed as reduction in lipid droplet accumulation in early differentiation at 0.5 to 5 uM incubated for 8 days by Oil Red O staining based inverted optical microscopic analysis; type: functional, cell-based; settings: dose 0.5-5 µM, time 8.0 day
[21] = system: PCS-210-010; assay: Inhibition of preadipocyte differentiation in human PCS-210-010 cells assessed as reduction in lipid droplet accumulation in maturation at 0.5 to 5 uM incubated for 8 days by Oil Red O staining based inverted optical microscopic analysis; type: functional, cell-based; settings: dose 0.5-5 µM, time 8.0 day
[22] = system: 3T3-L1; assay: Inhibition of preadipocyte differentiation in mouse 3T3-L1 cells assessed as reduction in triglyceride accumulation in early differentiation at 0.5 to 5 uM incubated for 8 days by colorimetric assay; type: functional, cell-based; settings: dose 0.5-5 µM, time 8.0 day, DDE = dose-dependent effect
[23] = system: 3T3-L1; assay: Inhibition of preadipocyte differentiation in mouse 3T3-L1 cells assessed as reduction in triglyceride accumulation in maturation at 0.5 to 5 uM incubated for 8 days by colorimetric assay; type: functional, cell-based; settings: dose 0.5-5 µM, time 8.0 day, DDE = dose-dependent effect
[24] = system: PCS-210-010; assay: Inhibition of preadipocyte differentiation in human PCS-210-010 cells assessed as reduction in triglyceride accumulation in early differentiation at 0.5 to 5 uM incubated for 8 days by colorimetric assay; type: functional, cell-based; settings: dose 0.5-5 µM, time 8.0 day, DDE = dose-dependent effect
[25] = system: PCS-210-010; assay: Inhibition of preadipocyte differentiation in human PCS-210-010 cells assessed as reduction in triglyceride accumulation in maturation at 0.5 to 5 uM incubated for 8 days by colorimetric assay; type: functional, cell-based; settings: dose 0.5-5 µM, time 8.0 day, DDE = dose-dependent effect
[26] = system: 3T3-L1; assay: Inhibition of preadipocyte differentiation in mouse 3T3-L1 cells assessed as increase in glycerol release in early differentiation at 0.5 to 5 uM incubated for 8 days by colorimetric assay; type: functional, cell-based; settings: dose 0.5-5 µM, time 8.0 day, DDE = dose-dependent effect
[27] = system: 3T3-L1; assay: Inhibition of preadipocyte differentiation in mouse 3T3-L1 cells assessed as increase in glycerol release in maturation at 0.5 to 5 uM incubated for 8 days by colorimetric assay; type: functional, cell-based; settings: dose 0.5-5 µM, time 8.0 day, DDE = dose-dependent effect
[28] = system: PCS-210-010; assay: Inhibition of preadipocyte differentiation in human PCS-210-010 cells assessed as increase in glycerol release in early differentiation at 0.5 to 5 uM incubated for 8 days by colorimetric assay; type: functional, cell-based; settings: dose 0.5-5 µM, time 8.0 day, DDE = dose-dependent effect
[29] = system: PCS-210-010; assay: Inhibition of preadipocyte differentiation in human PCS-210-010 cells assessed as increase in glycerol release in maturation at 0.5 to 5 uM incubated for 8 days by colorimetric assay; type: functional, cell-based; settings: dose 0.5-5 µM, time 8.0 day, DDE = dose-dependent effect
[30] = system: 3T3-L1; assay: Down regulation of FAS protein expression in mouse 3T3-L1 cells in early differentiation at 0.5 to 5 uM after 8 days by western blot analysis; type: functional, cell-based; settings: dose 0.5-5 µM, time 8.0 day
[31] = system: 3T3-L1; assay: Antiproliferative activity against mouse 3T3-L1 cells assessed as reduction in cell proliferation at 0.5 to 5 uM after 24 to 72 hrs by crystal violet staining based assay; type: functional; settings: dose 0.5-5 µM, time 24-72 hrs
[32] = system: 3T3-L1; assay: Down regulation of Cyclin D1 protein expression in mouse 3T3-L1 cells at 0.5 to 5 uM after 18 hrs by western blot analysis; type: functional, cell-based; settings: dose 0.5-5 µM
[33] = system: 3T3-L1; assay: Effect on Cyclin D3 protein expression in mouse 3T3-L1 cells at 0.5 to 5 uM after 18 hrs by western blot analysis; type: functional, cell-based; settings: dose 0.5-5 µM
[34] = system: 3T3-L1; assay: Down regulation of CDK6 protein expression in mouse 3T3-L1 cells at 0.5 to 5 uM after 18 hrs by western blot analysis; type: functional, cell-based; settings: dose 0.5-5 µM

Activity [1]: Active
Activity [2]: Active
Compound: COc1cc(CCc2cc(O)c(O)c(OC)c2)ccc1O
inhibition [3]: Active
IC50 at 48 h [4]: 35.5 µM
Activity [5]: Toxic
IC50 at 48 h [6]: 72.4 µM
Activity [7]: Toxic
IC50 at 48 h ([8]; PCS-210-010 pre-adipocytes): 34.6 µM
Activity ([8]; pcs-210-010, 48 h, time 48 hrs): Toxic
IC50 at 48 h ([9]; PCS-210-010 adipocytes): 71.9 µM
Activity ([9]; pcs-210-010, 48 h, time 48 hrs): Toxic
Activity [10]: Toxic
Activity [11]: Toxic
Activity [12]: Toxic
Activity [13]: Toxic
Activity [14]: Non-Toxic
Activity [15]: Non-Toxic
Activity [16]: Non-Toxic
Activity [17]: Non-Toxic
inhibition [18]: Active
inhibition [19]: Active
inhibition [20]: Active
inhibition [21]: Active
inhibition [22]: Dde
inhibition [23]: Dde
inhibition [24]: Dde
inhibition [25]: Dde
inhibition [26]: Dde
inhibition [27]: Dde
inhibition [28]: Dde
inhibition [29]: Dde
Activity [30]: Active
Activity [31]: Active
Activity [32]: Active
Activity [33]: Active
Activity [34]: Active
